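Step 1: Grow cells in 96-well plates. Step 2: Expose to compound for 48 hours at 5 concentrations. Step 3: Interpolate endpoints linearly; if unreached, use highest concentration. Abbreviation: GI50, concentration required for 50% inhibition of growth.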 Activity calls are given as the source filed them. Rule as the data show it: active = GI50 up to about 1.1 µM and inactive = higher.
Experiments:
Experiment in all cases: inhibition of tumour cell growth, NCI panel, 48 h
[1] = test system: OVCAR-5
[2] = test system: SK-OV-3
[3] = test system: OVCAR-8
[4] = test system: SN12C
[5] = test system: A549
[6] = test system: ACHN
[7] = test system: NCI-H23
[8] = test system: UO-31
[9] = test system: UACC-257
[10] = test system: OVCAR-4
[11] = test system: MOLT-4
[12] = test system: SNB-75
[13] = test system: SK-MEL-5
[14] = test system: NCI-H460
[15] = test system: UACC-62
[16] = test system: SK-MEL-2
[17] = test system: SF-295
[18] = test system: NCI-H226

| SMILES | GI50 [1] | GI50 [2] | GI50 [3] | GI50 [4] | GI50 [5] | GI50 [6] | GI50 [7] | GI50 [8] | GI50 [9] | GI50 [10] | GI50 [11] | GI50 [12] | GI50 [13] | GI50 [14] | GI50 [15] | GI50 [16] | GI50 [17] | GI50 [18] |
| --- | --- | --- | --- | --- | --- | --- | --- | --- | --- | --- | --- | --- | --- | --- | --- | --- | --- | --- |
| O=C(/N=N/C(=O)OCc1ccccc1)OCc1ccccc1 | > 100 µM (inactive) | > 100 µM (inactive) | > 100 µM (inactive) | > 100 µM (inactive) | 81.3 µM (inactive) | 76.4 µM (inactive) | 99.8 µM (inactive) | 31.6 µM (inactive) | > 100 µM (inactive) | 66.1 µM (inactive) | 31.9 µM (inactive) | 42.1 µM (inactive) | > 100 µM (inactive) | > 100 µM (inactive) | > 100 µM (inactive) | > 100 µM (inactive) | 35 µM (inactive) |  |
| CC(C)C(=O)/C=C/c1ccccc1 | > 100 µM (inactive) | > 100 µM (inactive) |  | 79.3 µM (inactive) | > 100 µM (inactive) | 81.5 µM (inactive) | 63.8 µM (inactive) | > 100 µM (inactive) | 94.8 µM (inactive) | > 100 µM (inactive) | 54.3 µM (inactive) | > 100 µM (inactive) | 67.3 µM (inactive) | 50.6 µM (inactive) | 87.3 µM (inactive) | > 100 µM (inactive) | 91.2 µM (inactive) |  |
| CC(=O)N1CCC(=O)/C(=C/c2ccccc2)C1 | > 100 µM (inactive) | 75.2 µM (inactive) | 21.2 µM (inactive) | 18.2 µM (inactive) | 71.9 µM (inactive) | 22.1 µM (inactive) | 32.4 µM (inactive) | > 100 µM (inactive) | > 100 µM (inactive) | 19.3 µM (inactive) | 33.2 µM (inactive) | 37.1 µM (inactive) | 34 µM (inactive) | 27.7 µM (inactive) | 24.7 µM (inactive) |  | 42.8 µM (inactive) | > 100 µM (inactive) |
| COc1ccc2nc(NC(=O)C(=O)C(C#N)c3ccc(Cl)c(Cl)c3)sc2c1 (stereo not given) | > 100 µM (inactive) | > 100 µM (inactive) | > 100 µM (inactive) | > 100 µM (inactive) | > 100 µM (inactive) | > 100 µM (inactive) | 75.9 µM (inactive) | > 100 µM (inactive) | > 100 µM (inactive) | > 100 µM (inactive) |  | 45.3 µM (inactive) | > 100 µM (inactive) | 84.7 µM (inactive) | > 100 µM (inactive) | > 100 µM (inactive) | > 100 µM (inactive) | > 100 µM (inactive) |
| CCSC(=O)C1(C)OC2CCCCC2C1=O (stereo not given) |  | > 100 µM (inactive) | > 100 µM (inactive) | > 100 µM (inactive) | > 100 µM (inactive) | > 100 µM (inactive) |  | > 100 µM (inactive) | > 100 µM (inactive) | > 100 µM (inactive) | > 100 µM (inactive) | > 100 µM (inactive) | > 100 µM (inactive) | > 100 µM (inactive) | > 100 µM (inactive) | > 100 µM (inactive) |  | > 100 µM (inactive) |
| CC1=C(C(=O)Nc2ccccc2)C(c2ccc(Cl)c(Cl)c2)C(C(=O)Nc2ccccc2)=C(C)N1 | 18.3 µM (inactive) | 15.1 µM (inactive) | 13.7 µM (inactive) | 14.9 µM (inactive) | 7.48 µM (inactive) | 12.1 µM (inactive) | 12.5 µM (inactive) | 13.2 µM (inactive) | 12.7 µM (inactive) | 9.75 µM (inactive) | 0.512 µM (active) | 14.2 µM (inactive) | 14 µM (inactive) | 13 µM (inactive) | 10.2 µM (inactive) |  | 12.5 µM (inactive) |  |
| CSc1nnc(CCC(=O)Nc2c(C)cccc2C)o1 | > 100 µM (inactive) | > 100 µM (inactive) | > 100 µM (inactive) | > 100 µM (inactive) | > 100 µM (inactive) |  | > 100 µM (inactive) | > 100 µM (inactive) | > 100 µM (inactive) | > 100 µM (inactive) | > 100 µM (inactive) | 91.6 µM (inactive) | > 100 µM (inactive) | > 100 µM (inactive) | > 100 µM (inactive) | > 100 µM (inactive) | > 100 µM (inactive) | > 100 µM (inactive) |
| CCOC(=O)/C([O-])=C(\C(=O)OCC)[n+]1c(C)n(C)c2ccccc21 | > 100 µM (inactive) | > 100 µM (inactive) | > 100 µM (inactive) |  | > 100 µM (inactive) |  | > 100 µM (inactive) | > 100 µM (inactive) | > 100 µM (inactive) | > 100 µM (inactive) | > 100 µM (inactive) | > 100 µM (inactive) | > 100 µM (inactive) | > 100 µM (inactive) | > 100 µM (inactive) | > 100 µM (inactive) | > 100 µM (inactive) | > 100 µM (inactive) |
| O=C(c1ccc(O)cc1)C1c2c3c(cc(O)c2C(c2ccc(O)cc2)C1c1cc(O)cc(O)c1)OC(c1ccc(O)cc1)C3c1cc2c(cc1O)OC(c1ccc(O)cc1)C2c1cc(O)cc(O)c1 (stereo not given) | > 12.5 µM (inactive) |  | > 12.5 µM (inactive) | > 12.5 µM (inactive) | > 12.5 µM (inactive) | > 12.5 µM (inactive) | > 12.5 µM (inactive) | > 12.5 µM (inactive) | > 12.5 µM (inactive) | > 12.5 µM (inactive) | > 12.5 µM (inactive) | > 12.5 µM (inactive) | > 12.5 µM (inactive) | > 12.5 µM (inactive) | 0.065 µM (active) | > 12.5 µM (inactive) |  | > 12.5 µM (inactive) |
| C=C1C(=O)OC2C1C(OC(=O)/C(C)=C\C)CC1(CO1)C1C(O)C=C(C)C21O (stereo not given) | 19.7 µM (inactive) | 16.7 µM (inactive) | 2.67 µM (inactive) | 3.27 µM (inactive) | 20.6 µM (inactive) | 3.16 µM (inactive) | 7.19 µM (inactive) | 10.3 µM (inactive) | 9.73 µM (inactive) | 7.78 µM (inactive) | 2 µM (inactive) | 10.6 µM (inactive) | 4.28 µM (inactive) | 14.3 µM (inactive) | 1.74 µM (inactive) | 3.72 µM (inactive) | 20.8 µM (inactive) |  |
| CC(c1cccc2ccccc12)/[N+]([O-])=C/c1ccccc1 (stereo not given) | > 100 µM (inactive) | > 100 µM (inactive) | > 100 µM (inactive) |  | > 100 µM (inactive) | > 100 µM (inactive) | > 100 µM (inactive) | 39.6 µM (inactive) | > 100 µM (inactive) |  | > 100 µM (inactive) | 75 µM (inactive) | > 100 µM (inactive) | > 100 µM (inactive) |  | > 100 µM (inactive) | > 100 µM (inactive) |  |
| N#C/C(=C\c1ccc(O)cc1O)C(N)=O | > 100 µM (inactive) | 45.6 µM (inactive) | > 100 µM (inactive) | > 100 µM (inactive) | > 100 µM (inactive) | 32.7 µM (inactive) | 58.1 µM (inactive) | 33.6 µM (inactive) | 51.1 µM (inactive) | > 100 µM (inactive) | 58.6 µM (inactive) | 16.7 µM (inactive) |  | > 100 µM (inactive) | 58.6 µM (inactive) | 98.4 µM (inactive) | > 100 µM (inactive) | 41.6 µM (inactive) |
